Source: ChEMBL document CHEMBL1201862, “PubChem BioAssay data set” (2004)
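Assay format: 96-well plates, 48-hour exposure. GI50 = concentration required for 50% inhibition of growth.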 Calls of active or inactive are those of the source. No stated cut-off is given here; in the data, active = GI50 up to about 1.1 µM and inactive = higher.

Columns and labels:
Assay in all cases: NCI-60 cell line screen, 48 h
786-0 = system: 786-0
A549 = system: A549
ACHN = system: ACHN
CAKI-1 = system: CAKI-1
CCRF-CEM = system: CCRF-CEM
COLO 205 = system: COLO 205
DU-145 = system: DU-145
EKVX = system: EKVX
HCT-116 = system: HCT-116
HCT-15 = system: HCT-15
HL-60 = system: HL-60
HOP-62 = system: HOP-62
HT-29 = system: HT-29
Hs-578T = system: Hs-578T
IGROV-1 = system: IGROV-1
K562 = system: K562
KM12 = system: KM12
LOX IMVI = system: LOX IMVI
M14 = system: M14
MCF7 = system: MCF7
MDA-MB-231 = system: MDA-MB-231
MDA-MB-435 = system: MDA-MB-435
MOLT-4 = system: MOLT-4
Malme-3M = system: Malme-3M
NCI-H226 = system: NCI-H226
NCI-H23 = system: NCI-H23
NCI-H460 = system: NCI-H460
NCI-H522 = system: NCI-H522
NCI/ADR-RES = system: NCI/ADR-RES
OVCAR-3 = system: OVCAR-3
OVCAR-4 = system: OVCAR-4
OVCAR-5 = system: OVCAR-5
OVCAR-8 = system: OVCAR-8
PC-3 = system: PC-3
RPMI-8226 = system: RPMI-8226
RXF 393 = system: RXF 393
SF-268 = system: SF-268
SF-539 = system: SF-539
SK-MEL-28 = system: SK-MEL-28
SK-MEL-2 = system: SK-MEL-2
SK-MEL-5 = system: SK-MEL-5
SK-OV-3 = system: SK-OV-3
SN12C = system: SN12C
SNB-19 = system: SNB-19
SNB-75 = system: SNB-75
SR = system: SR
SW-620 = system: SW-620
T47D = system: T47D
TK-10 = system: TK-10
U-251 = system: U-251
UACC-257 = system: UACC-257
UACC-62 = system: UACC-62
UO-31 = system: UO-31

SMILES: CN(C)Cc1cc(C(C)(C)C)cc(C2CCCCC2)c1O
- GI50 (786-0): 20.7 µM (inactive)
- GI50 (A549): 13.6 µM (inactive)
- GI50 (ACHN): 15.5 µM (inactive)
- GI50 (CAKI-1): 19.9 µM (inactive)
- GI50 (CCRF-CEM): 13.5 µM (inactive)
- GI50 (COLO 205): 14.2 µM (inactive)
- GI50 (DU-145): 14.7 µM (inactive)
- GI50 (EKVX): 11.9 µM (inactive)
- GI50 (HCT-116): 40.7 µM (inactive)
- GI50 (HCT-15): 15.3 µM
- GI50 (HL-60): 18.2 µM (inactive)
- GI50 (HOP-62): 18 µM (inactive)
- GI50 (HT-29): 2.86 µM (inactive)
- GI50 (Hs-578T): 16.6 µM (inactive)
- GI50 (IGROV-1): 18.8 µM (inactive)
- GI50 (K562): 12.2 µM (inactive)
- GI50 (KM12): 13.6 µM (inactive)
- GI50 (LOX IMVI): 15.2 µM (inactive)
- GI50 (M14): 24.6 µM (inactive)
- GI50 (MCF7): 18.3 µM (inactive)
- GI50 (MDA-MB-231): 13.8 µM (inactive)
- GI50 (MDA-MB-435): 20.3 µM (inactive)
- GI50 (MOLT-4): 10.8 µM (inactive)
- GI50 (Malme-3M): 2.15 µM (inactive)
- GI50 (NCI-H226): 15.7 µM (inactive)
- GI50 (NCI-H23): 24.9 µM (inactive)
- GI50 (NCI-H460): 19.1 µM (inactive)
- GI50 (NCI-H522): 20.2 µM (inactive)
- GI50 (NCI/ADR-RES): 19.6 µM (inactive)
- GI50 (OVCAR-3): 14.2 µM (inactive)
- GI50 (OVCAR-4): 12.1 µM (inactive)
- GI50 (OVCAR-5): 17 µM (inactive)
- GI50 (OVCAR-8): 13 µM (inactive)
- GI50 (PC-3): 13.6 µM (inactive)
- GI50 (RPMI-8226): < 0.01 µM (active)
- GI50 (RXF 393): 12.6 µM (inactive)
- GI50 (SF-268): 16.8 µM (inactive)
- GI50 (SF-539): 10.9 µM (inactive)
- GI50 (SK-MEL-28): 13.2 µM (inactive)
- GI50 (SK-MEL-2): 18.3 µM (inactive)
- GI50 (SK-MEL-5): 14.4 µM (inactive)
- GI50 (SK-OV-3): 15 µM (inactive)
- GI50 (SN12C): 15.7 µM (inactive)
- GI50 (SNB-19): 13 µM (inactive)
- GI50 (SNB-75): 10.3 µM (inactive)
- GI50 (SR): 12.3 µM (inactive)
- GI50 (SW-620): 16.6 µM (inactive)
- GI50 (T47D): 3.58 µM (inactive)
- GI50 (TK-10): 15.5 µM (inactive)
- GI50 (U-251): 14.4 µM (inactive)
- GI50 (UACC-257): 10.1 µM (inactive)
- GI50 (UACC-62): 16.1 µM (inactive)
- GI50 (UO-31): 17.7 µM (inactive)
